# Reference: patent US9738637B2, “Histone demethylase inhibitors” (Quanticel Pharmaceuticals, Inc., priority 2013, dated 2017)
# Experiments:
# [1] = molecular target: JMJD2C (Homo sapiens (Human), UniProt Q9H3R0); experiment: JMJD2C in vitro enzyme inhibition assay (TR-FRET); assay type: biochemical; conditions: TR-FRET, H3K9me3-biotin peptide; read-out: IC50 JNJD2C
# Experimental: (§1) This assay determines the ability of a test compound to inhibit Jarid1A, Jarid1B, JMJD2C, and JMJD2A demethylase activity.
# (§2) Reaction product was determined quantitatively by TR-FRET after the addition of detection reagent Phycolink Streptavidin-allophycocyanin (Prozyme) and Europium-anti-di-methylated histone H3 lysine 9 (H3K9me2) antibody (PerkinElmer) in the presence of 5 mM EDTA in LANCE detection buffer (PerkinElmer) at a final concentration of 50 nM and 1 nM, respectively.
# (§3) The assay reaction was initiated by the following: 2 μl of the mixture of 900 nM H3K9me3-biotin labeled peptide and 6 μM alpha-ketoglutaric acid with 2 μl of 11-point serial diluted inhibitor in 3% DMSO were added to each well of the plate, followed by the addition of 2 μl of 0.9 nM JMJD2C to initiate the reaction. The reaction mixture was incubated at room temperature for 30 minutes, and terminated by the addition of 6 μl of 5 mM EDTA in LANCE detection buffer containing 100 nM Phycolink Streptavidin-allophycocyanin and 2 nM Europium-anti-H3K9me2 antibody.
# (§4) The ability of the compounds disclosed herein to inhibit demethylase activity was quantified and the respective IC50 value was determined.
# [2] = molecular target: Jarid1B (Homo sapiens (Human), UniProt Q9UGL1); experiment: Jarid1B in vitro enzyme inhibition assay (TR-FRET); assay type: biochemical; conditions: TR-FRET, H3K4me3-biotin peptide; read-out: IC50 Jarid1B
# Sequence of Jarid1B (Q9UGL1 2-751): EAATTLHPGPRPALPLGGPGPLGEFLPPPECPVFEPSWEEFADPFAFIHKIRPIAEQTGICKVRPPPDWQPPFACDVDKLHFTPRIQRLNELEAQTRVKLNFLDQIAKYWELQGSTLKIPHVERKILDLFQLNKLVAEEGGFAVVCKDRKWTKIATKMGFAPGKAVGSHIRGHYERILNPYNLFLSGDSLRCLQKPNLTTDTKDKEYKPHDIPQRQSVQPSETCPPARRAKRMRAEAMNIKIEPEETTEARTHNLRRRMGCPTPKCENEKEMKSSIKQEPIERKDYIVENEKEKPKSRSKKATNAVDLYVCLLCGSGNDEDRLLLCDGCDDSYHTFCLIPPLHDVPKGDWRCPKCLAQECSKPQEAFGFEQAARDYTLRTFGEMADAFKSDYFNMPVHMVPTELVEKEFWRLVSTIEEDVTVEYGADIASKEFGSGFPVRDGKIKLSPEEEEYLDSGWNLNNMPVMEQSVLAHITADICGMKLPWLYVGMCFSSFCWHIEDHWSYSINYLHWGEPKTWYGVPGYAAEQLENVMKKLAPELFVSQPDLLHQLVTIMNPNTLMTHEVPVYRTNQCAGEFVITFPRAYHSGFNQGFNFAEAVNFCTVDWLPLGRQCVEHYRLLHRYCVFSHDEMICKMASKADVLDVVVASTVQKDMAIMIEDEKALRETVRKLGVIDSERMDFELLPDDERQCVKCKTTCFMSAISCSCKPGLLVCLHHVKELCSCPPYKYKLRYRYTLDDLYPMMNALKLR
# Experimental: as §1
# The reaction mixture was incubated at room temperature for 30 minutes, and terminated by the addition of 6 μl of 5 mM EDTA in LANCE detection buffer containing 50 nM Phycolink Streptavidin-allophycocyanin and 2 nM Europium-anti-H3K4me1-2 antibody.
# as §4
# [3] = molecular target: JMJD2A (Homo sapiens (Human), UniProt O75164); experiment: JMJD2A in vitro enzyme inhibition assay (TR-FRET); assay type: biochemical; conditions: H3K9me3-biotin peptide
# Sequence of JMJD2A (O75164 1-350): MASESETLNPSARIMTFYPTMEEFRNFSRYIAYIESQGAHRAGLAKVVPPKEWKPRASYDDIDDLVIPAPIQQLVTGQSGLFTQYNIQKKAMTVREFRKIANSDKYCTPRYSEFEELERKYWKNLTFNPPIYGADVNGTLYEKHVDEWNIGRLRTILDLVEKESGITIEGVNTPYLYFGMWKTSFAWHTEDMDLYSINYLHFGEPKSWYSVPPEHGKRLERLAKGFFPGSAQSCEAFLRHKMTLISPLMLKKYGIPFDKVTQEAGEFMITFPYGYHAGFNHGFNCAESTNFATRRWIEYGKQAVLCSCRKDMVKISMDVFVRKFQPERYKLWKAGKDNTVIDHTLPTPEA
# Experimental: as §1, §2
# as §3, with “well of plate, followed” for “well of the plate, followed”, “μl of 6 nM JMJD2A” for “μl of 0.9 nM JMJD2C”, “6 nM JMJD2A to initiate” for “0.9 nM JMJD2C to initiate”
# as §4
# [4] = molecular target: Jarid1A (Homo sapiens (Human), UniProt P29375); experiment: Jarid1A in vitro enzyme inhibition assay (TR-FRET); assay type: biochemical; conditions: H3K4me3-biotin peptide
# Sequence of Jarid1A (P29375 1-1090): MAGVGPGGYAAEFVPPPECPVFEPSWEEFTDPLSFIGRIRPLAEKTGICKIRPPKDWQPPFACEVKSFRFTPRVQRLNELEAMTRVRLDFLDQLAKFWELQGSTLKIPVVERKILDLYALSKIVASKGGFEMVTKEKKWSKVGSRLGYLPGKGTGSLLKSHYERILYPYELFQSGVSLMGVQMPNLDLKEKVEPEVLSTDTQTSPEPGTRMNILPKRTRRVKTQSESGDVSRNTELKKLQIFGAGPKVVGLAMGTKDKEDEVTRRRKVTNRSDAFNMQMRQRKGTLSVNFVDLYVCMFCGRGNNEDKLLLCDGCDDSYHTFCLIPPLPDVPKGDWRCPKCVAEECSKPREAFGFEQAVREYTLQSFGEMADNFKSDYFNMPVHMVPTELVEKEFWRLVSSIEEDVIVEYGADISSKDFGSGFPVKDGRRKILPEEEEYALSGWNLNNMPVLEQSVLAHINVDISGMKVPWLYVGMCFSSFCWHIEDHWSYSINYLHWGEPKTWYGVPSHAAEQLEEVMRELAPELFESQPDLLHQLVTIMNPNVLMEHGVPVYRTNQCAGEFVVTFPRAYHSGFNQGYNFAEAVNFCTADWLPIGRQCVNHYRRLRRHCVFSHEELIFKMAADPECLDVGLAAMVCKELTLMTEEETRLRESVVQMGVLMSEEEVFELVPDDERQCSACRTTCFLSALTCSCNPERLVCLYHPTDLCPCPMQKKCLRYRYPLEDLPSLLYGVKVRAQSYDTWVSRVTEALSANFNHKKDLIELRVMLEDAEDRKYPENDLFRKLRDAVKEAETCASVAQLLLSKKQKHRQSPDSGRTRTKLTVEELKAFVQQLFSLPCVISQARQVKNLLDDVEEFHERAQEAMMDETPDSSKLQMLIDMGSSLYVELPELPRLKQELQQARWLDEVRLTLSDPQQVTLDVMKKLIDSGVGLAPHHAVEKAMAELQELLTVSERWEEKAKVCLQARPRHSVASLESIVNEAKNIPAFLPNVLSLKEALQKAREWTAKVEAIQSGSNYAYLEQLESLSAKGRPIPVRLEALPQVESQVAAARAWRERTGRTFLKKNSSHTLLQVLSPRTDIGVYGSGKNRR
# Experimental: as §1
# The enzymatic assay of Jarid1A activity is based upon Time Resolved-Fluorescence Resonance Energy Transfer (TR-FRET) detection.
# The assay reaction was initiated by the following: 2 μl of the mixture of 900 nM H3K4me3-biotin labeled peptide and 6 μM alpha-ketoglutaric acid with 2 μl of 11-point serial diluted inhibitor in 3% DMSO was added to each well of plate, followed by the addition of 2 μl of 3 nM Jarid1A to initiate the reaction. The reaction mixture was incubated at room temperature for 30 minutes, and terminated by the addition of 6 μl of 5 mM EDTA in LANCE detection buffer containing 50 nM Phycolink Streptavidin-allophycocyanin and 2 nM Europium-anti-H3K4me1-2 antibody.
# as §4
# [5] = system: KDM5A and KDM5B; experiment: In vitro cell-based assay, ZR-75-1 cell line: tri-methyl H3K4 immuno-blotting (cellular inhibition of KDM5A/B); conditions: ZR-75-1 breast cancer cells, 72 hours, read-out: IC50 ZR-75-1 cell-MOA
# From the text: This quantitative immuno-blotting assay measures the amount tri-methylated histone H3 at amino acid Lysine number 4, a specific substrate […] of the direct enzymatic activity of the histone demethylases KDM5A and KDM5B from extracts of the ZR-75-1 breast cancer cell line.
# This assay is a fluorometric immunoassay for the quantification of tri-methyl H3K4 extracted from cells treated with test compound and is used as a measure of the cellular inhibition of KDM5A/B.
# Cells were left in the presence of test compound for 72 hours. Extracts were prepared containing all of the cellular histone material using detergent based lysis and sonication methods. These lysates were subsequently normalized for total protein content using a colorimetric bicinchonic acid assay (MicroBCA Pierce/Thermo Scientific). Normalized cell extracts were then subjected to typical immuno-blotting procedures using NuPage reagents (Life Technologies). Electrophoretically separated histones were then transferred and immobilized using polyvinylidene difluoride membrane (Immobilon-FL Millipore). The amount of tri-methylated lysine 4 of histone H3 was detected using an antibody specific to the tri-methylated state (Cell Signaling Technologies) and quantified on an infrared imager using a densitometry software package (Odyssey CLx, Image Studio, Li-Cor). This background subtracted densitometry value was reported as a ration of the GAPDH amount for that sample and then calculated as a percent of the DMSO treated sample. The software package XL-fit (IDBS) was then used to calculate a relative IC50 value for the dilution series of a given test compound according to the equation: fit=(D+((Vmax*(x^n))/((x^n)+(Km^n)))).
# Sequence of JMJD2C (Q9H3R0 2-372): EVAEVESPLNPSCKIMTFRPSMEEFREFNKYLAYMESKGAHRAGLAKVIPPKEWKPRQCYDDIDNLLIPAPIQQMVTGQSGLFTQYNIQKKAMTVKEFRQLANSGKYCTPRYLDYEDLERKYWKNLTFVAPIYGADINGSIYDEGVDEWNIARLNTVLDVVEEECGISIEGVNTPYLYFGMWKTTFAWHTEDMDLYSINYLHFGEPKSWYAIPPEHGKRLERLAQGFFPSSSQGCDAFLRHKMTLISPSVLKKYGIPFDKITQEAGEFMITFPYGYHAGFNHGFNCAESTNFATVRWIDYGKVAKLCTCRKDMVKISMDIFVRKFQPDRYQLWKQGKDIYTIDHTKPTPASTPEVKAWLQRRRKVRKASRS
IC50 [1],IC50 [2],IC50 [3],IC50 [4],IC50 [5],Molecule
0.1 to 1 µM,< 0.1 µM,0.1 to 1 µM,< 0.1 µM,–,"COc1cccc(C(O)c2cc3nccc(C(=O)O)c3[nH]2)c1 (racemic) [Example 24, (±)-2-[hydroxy-(3-methoxyphenyl)methyl]-1H-pyrrolo[3,2-b]pyridine-7-carboxylic acid]"
–,–,–,–,> 10 µM,"COC(=O)c1ccnc2cc(C(O)C3CCOCC3)[nH]c12 (racemic) [Example 42, (±)-methyl 2-[hydroxy(oxan-4-yl)methyl]-1H-pyrrolo[3,2-b]pyridine-7-carboxylate]"
–,–,–,–,> 10 µM,"COC(=O)c1ccnc2cc(C(C)(O)c3ccccc3)[nH]c12 (racemic) [Example 45, (±)-methyl 2-(1-hydroxy-1-phenylethyl)-1H-pyrrolo[3,2-b]pyridine-7-carboxylate]"
0.1 to 1 µM,0.1 to 1 µM,–,< 0.1 µM,> 10 µM,"CC(O)(c1ccccc1)c1cc2nccc(C(=O)O)c2[nH]1 (racemic) [Example 46, (±)-2-(1-hydroxy-1-phenylethyl)-1H-pyrrolo[3,2-b]pyridine-7-carboxylic acid]"
–,–,–,–,> 10 µM,"COC(=O)c1ccnc2cc(C(O)c3ccnn3C)[nH]c12 (racemic) [Example 47, (±)-methyl 2-[hydroxy-(2-methylpyrazol-3-yl)methyl]-1H-pyrrolo[3,2-b]pyridine-7-carboxylate]"
< 0.1 µM,< 0.1 µM,–,< 0.1 µM,> 10 µM,"Cn1nccc1C(O)c1cc2nccc(C(=O)O)c2[nH]1 (racemic) [Example 48, (±)-2-[hydroxy-(2-methylpyrazol-3-yl)methyl]-1H-pyrrolo[3,2-b]pyridine-7-carboxylic acid]"
0.1 to 1 µM,< 0.1 µM,–,< 0.1 µM,> 10 µM,"O=C(O)c1ccnc2cc(C(O)c3ccccc3Cl)[nH]c12 (racemic) [Example 72, (±)-2-[(2-chlorophenyl)-hydroxymethyl]-1H-pyrrolo[3,2-b]pyridine-7-carboxylic acid]"
0.1 to 1 µM,0.1 to 1 µM,< 0.1 µM,0.1 to 1 µM,–,"Cc1ccccc1-c1cc2nccc(C(=O)O)c2[nH]1 [Example 3, 2-(2-methylphenyl)-1H-pyrrolo[3,2-b]pyridine-7-carboxylic acid]"
< 0.1 µM,0.1 to 1 µM,–,< 0.1 µM,> 10 µM,"Cc1cccc(Cc2cc3nccc(C(=O)O)c3[nH]2)c1 [Example 36, 2-[(3-methylphenyl)methyl]-1H-pyrrolo[3,2-b]pyridine-7-carboxylic acid]"
0.1 to 1 µM,< 0.1 µM,–,< 0.1 µM,> 10 µM,"O=C(O)c1ccnc2cc(Cc3ccc(Cl)cc3)[nH]c12 [Example 44, 2-[(4-chlorophenyl)methyl]-1H-pyrrolo[3,2-b]pyridine-7-carboxylic acid]"
0.1 to 1 µM,< 0.1 µM,–,< 0.1 µM,1 to 10 µM,"O=C(O)c1ccnc2cc(COc3ccc(F)cc3)[nH]c12 [Example 60, 2-[(4-fluorophenoxy)methyl]-1H-pyrrolo[3,2-b]pyridine-7-carboxylic acid]"
< 0.1 µM,< 0.1 µM,–,< 0.1 µM,1 to 10 µM,"O=C(O)c1ccnc2cc(COc3ccc(Cl)cc3)[nH]c12 [Example 64, 2-[(4-chlorophenoxy)methyl]-1H-pyrrolo[3,2-b]pyridine-7-carboxylic acid]"
< 0.1 µM,< 0.1 µM,–,< 0.1 µM,> 10 µM,"O=C(O)c1ccnc2cc(Cc3ccc(F)cc3)[nH]c12 [Example 101, 2-[(4-fluorophenyl)methyl]pyrrolo[3,2-b]pyridine-7-carboxylic acid]"
0.1 to 1 µM,0.1 to 1 µM,–,0.1 to 1 µM,–,"O=C(O)c1ccnc2cc(C(=O)N3CCCC(c4ccccc4)C3)[nH]c12 (centres unmarked) [Example 120, 2-[(3-phenylpiperidyl)carbonyl]pyrrolo-[3,2-b]pyridine-7-carboxylic acid]"
0.1 to 1 µM,< 0.1 µM,–,0.1 to 1 µM,–,"CC1(C)CCCN1C(=O)c1cc2nccc(C(=O)O)c2[nH]1 [Example 124, 2-[(2,2-dimethylpyrrolidinyl)carbonyl]-pyrrolo[3,2-b]pyridine-7-carboxylic acid]"

# More lines, now with the values behind:
Molecule,IC50 [1],IC50 [2],IC50 [3],IC50 [4],IC50 [5]
"O=C(O)c1ccnc2cc(C(O)C3CCOCC3)[nH]c12 (racemic) [Example 43, (±)-2-[hydroxy(oxan-4-yl)methyl]-1H-pyrrolo[3,2-b]pyridine-7-carboxylic acid]",0.1 to 1 µM,< 0.1 µM,0.1 to 1 µM,< 0.1 µM,–
"O=C(O)c1ccnc2cc(-c3ccccc3)[nH]c12 [Example 2, 2-phenyl-1H-pyrrolo[3,2-b]pyridine-7-carboxylic acid]",0.1 to 1 µM,0.1 to 1 µM,0.1 to 1 µM,0.1 to 1 µM,–
"COC(=O)c1ccnc2cc(Cc3ccccc3)[nH]c12 [Example 6, methyl 2-benzyl-1H-pyrrolo[3,2-b]pyridine-7-carboxylate]",> 10 µM,> 10 µM,–,> 10 µM,> 10 µM
"COc1cccc(Cc2cc3nccc(C(=O)O)c3[nH]2)c1 [Example 34, 2-[(3-methoxyphenyl)methyl]-1H-pyrrolo[3,2-b]pyridine-7-carboxylic acid]",0.1 to 1 µM,0.1 to 1 µM,–,< 0.1 µM,> 10 µM
"O=C(O)c1ccnc2cc(COc3ccccc3)[nH]c12 [Example 39, 2-(phenoxymethyl)-1H-pyrrolo[3,2-b]pyridine-7-carboxylic acid]",< 0.1 µM,< 0.1 µM,0.1 to 1 µM,< 0.1 µM,–
"Cc1ccccc1OCc1cc2nccc(C(=O)O)c2[nH]1 [Example 66, 2-[(2-methylphenoxy)methyl]-1H-pyrrolo[3,2-b]pyridine-7-carboxylic acid]",0.1 to 1 µM,< 0.1 µM,–,< 0.1 µM,> 10 µM
"Cc1cccc(OCc2cc3nccc(C(=O)O)c3[nH]2)c1 [Example 74, 2-[(3-methylphenoxy)methyl]-1H-pyrrolo[3,2-b]pyridine-7-carboxylic acid]",< 0.1 µM,< 0.1 µM,–,< 0.1 µM,> 10 µM
"O=C(O)c1ccnc2cc(C(=O)N3CCC(c4ccccc4)C3)[nH]c12 (centres unmarked) [Example 116, 2-[(3-phenylpyrrolidinyl)carbonyl]-pyrrolo[3,2-b]pyridine-7-carboxylic acid]",0.1 to 1 µM,< 0.1 µM,–,< 0.1 µM,–
"O=C(O)c1ccnc2cc(C(=O)N3CCc4ccccc4C3)[nH]c12 [Example 122, 2-(2-1,2,3,4-tetrahydroisoquinolylcarbonyl)-pyrrolo[3,2-b]pyridine-7-carboxylic acid]",0.1 to 1 µM,< 0.1 µM,–,< 0.1 µM,–
"(±)-methyl 2-(1-hydroxy-2-methylpropyl)-1H-pyrrolo[3,2-b]pyridine-7-carboxylate [Example 30]",< 0.1 µM,< 0.1 µM,–,0.1 to 1 µM,–
